Target: CYP102A1 (Priestia megaterium, UniProt P14779, E144G/E268V/F82I/F88V/L189Q/N214S/R48L)
Assay: UV-visible spectral binding titration (type II shift); also turnover by HPLC with NADPH-generating system (Km […])

Chain of CYP102A1 (P14779 whole entry R48L/F82I/F88V/E144G/L189Q/N214S/E268V): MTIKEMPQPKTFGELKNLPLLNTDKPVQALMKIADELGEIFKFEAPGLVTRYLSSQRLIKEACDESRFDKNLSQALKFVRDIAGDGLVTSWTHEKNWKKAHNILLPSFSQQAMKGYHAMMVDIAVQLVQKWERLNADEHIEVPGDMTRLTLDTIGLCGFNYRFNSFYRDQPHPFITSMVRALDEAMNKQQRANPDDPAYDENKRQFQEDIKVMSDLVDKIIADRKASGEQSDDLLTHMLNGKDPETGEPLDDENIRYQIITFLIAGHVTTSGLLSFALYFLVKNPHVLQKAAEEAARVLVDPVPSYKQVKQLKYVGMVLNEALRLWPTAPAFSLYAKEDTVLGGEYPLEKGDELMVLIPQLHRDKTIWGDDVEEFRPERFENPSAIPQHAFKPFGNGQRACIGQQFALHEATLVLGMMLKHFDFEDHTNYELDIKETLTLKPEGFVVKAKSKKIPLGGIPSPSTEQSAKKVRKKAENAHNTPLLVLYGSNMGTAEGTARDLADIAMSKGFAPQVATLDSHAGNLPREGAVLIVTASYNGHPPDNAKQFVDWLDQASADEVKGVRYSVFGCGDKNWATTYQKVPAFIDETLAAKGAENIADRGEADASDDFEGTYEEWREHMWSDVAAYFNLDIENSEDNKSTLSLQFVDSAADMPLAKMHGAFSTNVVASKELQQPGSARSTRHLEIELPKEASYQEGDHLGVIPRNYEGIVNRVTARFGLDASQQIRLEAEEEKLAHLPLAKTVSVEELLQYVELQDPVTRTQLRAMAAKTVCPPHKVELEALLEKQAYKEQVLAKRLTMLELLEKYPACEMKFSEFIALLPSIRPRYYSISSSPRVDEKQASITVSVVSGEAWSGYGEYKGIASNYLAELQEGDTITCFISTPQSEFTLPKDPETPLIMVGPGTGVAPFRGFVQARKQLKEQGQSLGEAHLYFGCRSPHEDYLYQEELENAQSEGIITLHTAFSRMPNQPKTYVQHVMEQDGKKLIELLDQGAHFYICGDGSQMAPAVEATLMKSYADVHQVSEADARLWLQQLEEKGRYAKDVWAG

CC1=CCC(O)(C(C)C)CC1 (racemic) [terpinen-4-ol]
Kd: 920 ± 260 nM
